Measured values from ChEMBL document CHEMBL1201862, “PubChem BioAssay data set” (2004).
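Results reflect a 48-hour exposure of cells in 96-well plates to compound at five concentrations. GI50 marks 50% less growth.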 The source made the active and inactive calls. Cut-off read from the data, not from the text of the source: active = GI50 up to about 1.1 µM and inactive = higher.

Assays:
Assay in all cases: NCI-60 cell line screen, 48 h
COLO 205 = system: COLO 205
Malme-3M = system: Malme-3M
SF-268 = system: SF-268
HCC 2998 = system: HCC 2998
HT-29 = system: HT-29
SK-MEL-2 = system: SK-MEL-2
IGROV-1 = system: IGROV-1
SW-620 = system: SW-620
HCT-116 = system: HCT-116
K562 = system: K562
SK-MEL-28 = system: SK-MEL-28
CCRF-CEM = system: CCRF-CEM
NCI-H226 = system: NCI-H226
A498 = system: A498
SR = system: SR
CAKI-1 = system: CAKI-1

Measured: GI50

N#Cc1cccc(N2C(=O)c3c(c(-c4ccccc4)c(-c4ccc(Sc5ccc(-c6c(-c7ccccc7)c7c(c(-c8ccccc8)c6-c6ccccc6)C(=O)N(c6cccc(C#N)c6)C7=O)cc5)cc4)c(-c4ccccc4)c3-c3ccccc3)C2=O)c1
inactive: COLO 205 > 100 µM | Malme-3M > 100 µM | SF-268 55.7 µM | HCC 2998 > 100 µM | HT-29 > 100 µM | SK-MEL-2 > 100 µM | IGROV-1 28.8 µM | SW-620 > 100 µM | HCT-116 65.2 µM | K562 > 100 µM | SK-MEL-28 > 100 µM | CCRF-CEM > 100 µM

COCC12CC(CC1=O)C1C2ON2c3ccccc3C(=O)C12c1ccccc1 (centres undefined)
inactive: COLO 205 > 100 µM | Malme-3M > 100 µM | SF-268 > 100 µM | HCC 2998 > 100 µM | NCI-H226 > 100 µM | HT-29 > 100 µM | A498 > 100 µM | SR 88.1 µM | IGROV-1 > 100 µM | SW-620 > 100 µM | HCT-116 > 100 µM | K562 63.7 µM | SK-MEL-28 > 100 µM | CCRF-CEM 61.2 µM

COc1cccc2c1C(=O)C1(O)CCCCC21 (centres undefined)
inactive: COLO 205 > 100 µM | Malme-3M > 100 µM | SF-268 > 100 µM | HCC 2998 > 100 µM | NCI-H226 > 100 µM | HT-29 > 100 µM | A498 > 100 µM | SK-MEL-2 > 100 µM | IGROV-1 > 100 µM | SW-620 > 100 µM | HCT-116 > 100 µM | K562 > 100 µM | SK-MEL-28 > 100 µM | CAKI-1 > 100 µM | CCRF-CEM > 100 µM

COCCNC(=O)C1C(=O)N(CCOC)C(=O)/C1=N/N (centres undefined)
inactive: Malme-3M > 100 µM | SF-268 > 100 µM | NCI-H226 > 100 µM | HT-29 > 100 µM | SR > 100 µM | SK-MEL-2 > 100 µM | IGROV-1 > 100 µM | SW-620 > 100 µM | HCT-116 > 100 µM | K562 > 100 µM | SK-MEL-28 > 100 µM | CAKI-1 > 100 µM | CCRF-CEM > 100 µM

CSc1ccc(NC(=O)C2c3[nH]c4ccccc4c3C3CCC(C(C)(C)C)CC3C2C(=O)O)cc1 (centres undefined)
inactive: COLO 205 18 µM | Malme-3M 20.9 µM | SF-268 18.9 µM | HCC 2998 33 µM | NCI-H226 15.3 µM | HT-29 16.5 µM | A498 17.9 µM | SR 11.5 µM | IGROV-1 17 µM | SW-620 17.7 µM | HCT-116 14.4 µM | K562 32.3 µM | SK-MEL-28 22.9 µM | CCRF-CEM 10.7 µM

O=C1C[C@@H]2CCCC[C@@H]2C12SCCS2
inactive: COLO 205 > 100 µM | Malme-3M > 100 µM | SF-268 > 100 µM | HCC 2998 > 100 µM | A498 > 100 µM | SK-MEL-2 > 100 µM | IGROV-1 > 100 µM | SW-620 > 100 µM | HCT-116 > 100 µM | K562 > 100 µM | SK-MEL-28 89.3 µM | CAKI-1 > 100 µM | CCRF-CEM > 100 µM

CC(C)=CCC/C(=C/CC/C(C)=C/CCc1ccoc1)C(=O)O
inactive: COLO 205 > 100 µM | Malme-3M > 100 µM | SF-268 > 100 µM | HCC 2998 > 100 µM | NCI-H226 73.5 µM | HT-29 > 100 µM | A498 > 100 µM | SK-MEL-2 > 100 µM | SW-620 > 100 µM | HCT-116 > 100 µM | K562 > 100 µM | SK-MEL-28 > 100 µM | CCRF-CEM > 100 µM
